Laboratory results reported in patent publication US20180171304A1, “CONTINUOUSLY BIOPRINTED MULTILAYER TISSUE STRUCTURE” (ASPECT BIOSYSTEMS LTD., priority 2015, published 2018).

Tested on: muscle tube
Details: tube cultured for 14 days; contraction gradual over a 40 minute time period; FIG. 2
Source text: In one embodiment, described herein are multi-layered tubes of muscle tissue. The tubes are created using a layer-by-layer deposition process by which muscle cells are dispersed within a solidified biocompatible matrix and bioprinted in a continuous fiber. In one embodiment, the fiber is deposited in a ring-like pattern to form a layer. These layers are stacked to form tubes, the height of which may be varied in a controlled way by changing the number of layers. Preferably, the matrix composition is physiologically compatible such that it allows the muscle cells to fully differentiate into a contractile phenotype. At the time of bioprinting, the tube is not contractile. […]
After bioprinting, the muscle structure must be submersed in cell culture media and placed in a cell culture incubator with temperature and carbon dioxide level control. […] In the preferred embodiment contraction and relaxation are measured by visual observation of changes in the diameter of the tube. […] Alternatively, a camera with an appropriate level of magnification could be positioned above the smooth muscle tube such that video footage of the tube from a top down perspective is recorded. […] The change in area, radius, diameter or circumference of the muscle tube may be quantified. […]

`NCCc1c[nH]cn1` [histamine] was tested, and the “contraction of muscle tube (smaller diameter in contracted state)” value was “initiate contraction”.
